Common to all, as to test: MIC in vitro
Assay [1] deals with Salmonella typhimurius AMES 98. It counts as cell-based, Salmonella typhimurium. To be noted: AMES98, Dextrose agar, 37° C., 20 hours. The protocol: (G. L. Daquet and Y. A. Chabbect, Techniques en bacteriologie (Bacteriological techniques), vol. 3, Flammarion Medecine Sciences, Paris, 1972 and W. B. Hugo and A. D. Rusell, Pharmaceutical Microbiology, Blackwell Scientific Publications, London, (1977)).
Antibiotic medium no. 1 (seed agar) (Oxoid CM 327)
Tryptone-soya broth (Oxoid CM 129)
Ringer's physiological solution 1/4 (oxoid BR 52) Dextrose agar (BBL-11165) 0.1 N NaOH
"Salmonella typhimurium" AMES 98
Each of the microorganisms is seeded by streaking in tubes of Antibiotic medium No. 1 (seed agar), which are then incubated at 37° C. for 20 hours. Using a culture loop, the cultures are then seeded in tryptone-soyabroth and incubated at 37° C. for 20 hours. The culture obtained is diluted to 1/4 with Ringer's physiological solution, so as to obtain a standardized suspension of 10^7 -10^9 cfu/ml for each organism.
Starting from a solution of 1,000 μg/ml in 0.1 N NaOH, each product is diluted in Dextrose agar (previously melted and maintained at 50° C.), with successive dilutions so as to obtain the following concentrations: 64--32--16--8--4--2--1--0.5--0.25--0.125 μg of derivative/ml medium.
For each product, the solution of each concentration is subsequently distributed into Petri dishes 10 cm in diameter, with 10 ml of medium per dish and the same number of dishes as microorganisms to be tested.
As soon as the medium has cooled, the dishes are seeded with the inoculations using 0.4 ml of inoculation per dish. They are spread with a Driglasky loop and the supernatant is removed. The seeded dishes are incubated at 37° C. for 20 hours.

In assay [2] the test system is Micrococus flavus ATCC 10240. It counts as cell-based. The conditions noted are these: Micrococcus flavus, ATCC10240, Dextrose agar, 37° C., 20 hours. The protocol:
(§1) (G. L. Daquet and Y. A. Chabbect, Techniques en bacteriologie (Bacteriological techniques), vol. 3, Flammarion Medecine Sciences, Paris, 1972 and W. B. Hugo and A. D. Rusell, Pharmaceutical Microbiology, Blackwell Scientific Publications, London, (1977)). Antibiotic medium no. 1 (seed agar) (Oxoid CM 327) Tryptone-soya broth (Oxoid CM 129) Ringer's physiological solution 1/4 (oxoid BR 52) Dextrose agar (BBL-11165) 0.1 N NaOH "Micrococcus flavus" ATCC 10240 Each of the microorganisms is seeded by streaking in tubes of Antibiotic medium No. 1 (seed agar), which are then incubated at 37° C. for 20 hours. Using a culture loop, the cultures are then seeded in tryptone-soyabroth and incubated at 37° C. for 20 hours. The culture obtained is diluted to 1/4 with Ringer's physiological solution, so as to obtain a standardized suspension of 10^7 -10^9 cfu/ml for each organism. Starting from a solution of 1,000 μg/ml in 0.1 N NaOH, each product is diluted in Dextrose agar (previously melted and maintained at 50° C.), with successive dilutions so as to obtain the following concentrations: 64--32--16--8--4--2--1--0.5--0.25--0.125 μg of derivative/ml medium. For each product, the solution of each concentration is subsequently distributed into Petri dishes 10 cm in diameter, with 10 ml of medium per dish and the same number of dishes as microorganisms to be tested. As soon as the medium has cooled, the dishes are seeded with the inoculations using 0.4 ml of inoculation per dish. They are spread with a Driglasky loop and the supernatant is removed. The seeded dishes are incubated at 37° C. for 20 hours.

Assay [3] concerns Enterobacter aerogenes ATCC 15038. The class given is cell-based. The conditions noted are these: Klebsiella aerogenes, ATCC15038, Dextrose agar, 37° C., 20 hours.
Excerpt: as §1, with “"Enterobacter aerogenes"” for “"Micrococcus flavus"”, “15038” for “10240”

Each structure is given as a SMILES string. Values after ≈ are worked out from the molar mass of the structure shown.

Usually MIC stands for the lowest concentration found to suppress growth. `CCn1cc(C(=O)O)c(=O)c2cnc(N3CCNCC3)nc21` [Pipemidic acid, reference compound]: the MIC in assay [1] is 4 µg/mL (≈ 13.2 µM); in assay [2] it was above 64 µg/mL; in assay [3] it was 32 µg/mL (≈ 105 µM).
In the case of `CCn1cc(C(=O)O)c(=O)c2ccc(-n3cccc3)nc21` [Example 3, 1-ethyl-1,4-dihydro-4-oxo-7-(1-pyrrolyl)-1,8-naphthyridine-3-carboxylic acid], the MIC in assay [1] is 0.5 µg/mL (≈ 1.76 µM); in assay [2], 4 µg/mL (≈ 14.1 µM); in assay [3], above 64 µg/mL.
With `CCn1cc(C(=O)O)c(=O)c2ccc(-n3cccc3)cc21` [Example 1, 7-(1-pyrrolyl)-1-ethyl-1,4-dihydro-4-oxo-3-quinolinecarboxylic acid], the MIC in assay [1] was 0.5 µg/mL (≈ 1.77 µM); in assay [2], 16 µg/mL (≈ 56.7 µM); in assay [3], above 64 µg/mL.
As for `CCn1cc(C(=O)O)c(=O)c2cc(F)c(-n3cccc3)nc21` [Example 4, 1-ethyl-1,4-dihydro-4-oxo-6-fluoro-7-(1-pyrrolyl)-1,8-naphthyridine-3-carboxylic acid], the values for the MIC in assay [1], in assay [2] and in assay [3] were 0.12 µg/mL (≈ 0.398 µM), 1 µg/mL (≈ 3.32 µM) and 4 µg/mL (≈ 13.3 µM), respectively.
The like results for `CCn1cc(C(=O)O)c(=O)c2cc(F)c(-n3cccc3)cc21` [Example 2, 6-fluoro-7-(1-pyrrolyl)-1-ethyl-1,4-dihydro-4-oxo-3-quinolinecarboxylic acid] were, in that order, below 0.125 µg/mL, 8 µg/mL (≈ 26.6 µM) and 8 µg/mL (≈ 26.6 µM).
